The values that follow come from patent US12280088B2, “Dry powder formulation of caveolin-1 peptides and methods of use thereof” (BOARD OF REGENTS, THE UNIVERSITY OF TEXAS SYSTEM, priority 2018, dated 2025).

Values after ≈ are worked out from the molar mass of the structure shown. Peptide text beside a SMILES is read from it.

Series [1] is described as follows: Stability study of milled CSP7 (ammonium counterion): geometric particle size distribution (Sympatec HELOS, RODOS). Type of series: physicochemical. Particulars: not stored (Unprocessed / Initial). As to the method:
(§1) Stability study for milled CSP7 (ammonium counterion) from Lot #UTA181028. The stability of milled CSP7 powder was investigated under different storage conditions for a period of up to 6 months. Milled CSP7 peptide is packaged as two forms, bulk milled powder and encapsulated milled powder. For storage as bulk milled powder, 0.21-0.24 g peptide is filled in 20 mL scintillation vials (Kimble®, DWK Life Sciences, Millville, N.J., US) and stored within a heat-sealed foil pouch (Impak Corp, Los Angeles, Calif., US) containing two bags of 1 g silica gel desiccant (Tyvek®, Sorbco Packaging LLC, Belen, N. Mex., US) in each pouch. Milled peptide powder is also encapsulated in size 3 HPMC capsules (Capsugel, Morristown, N.J., US) in a weight of about 11±5% mg, and 22-26 capsules are then packaged in HDPE bottles (Drug Plastic, Boyertown, Pa., US), followed by sealing the HDPE bottle within a foil pouch (without desiccant). Packages are stored in stability chambers at the following storage conditions: −20° C., 25° C./60% RH, and 40° C./75% RH. Samples are removed for testing at 1, 3, and 6 months (Table 38). For tests except the aerodynamic particle size distribution, encapsulated powder was removed from the capsule and mixed in a glass vial by rotating the vial.
Geometric particle size distribution. GPSD of CSP7 powder was analyzed before and after milling using a Sympatec HELOS laser diffraction instrument (Sympatec GmbH, Germany) equipped with RODOS dispersion. Measurements are taken every 10 ms following powder dispersion at 3 bar. Measurements that are between 5 and 25% optical density were averaged to determine particle size distribution. The particle sizes by volume are reported at percentiles of 10, 50, and 90 (e.g., Dv 10, Dv 50, and Dv 90), respectively, as well as the percentages of particles falling into 1-5 μm size range. The results are shown in 41.

The nature of series [2]: Stability study of milled CSP7 (ammonium counterion): aerodynamic particle size distribution by NGI. Type of series: physicochemical. Particulars: Lot#UTA181028; Unprocessed. As to the method:
Determination of aerodynamic particle size distribution of milled CSP7 bulk powder. Around 3.5 mg of milled CSP7 powder was manually filled into size 3 HPMC capsules (Capsugel, Peapack, N.J.). CSP7 capsules were then aerosolized using a RS01 Monodose Dry Powder Inhaler (high resistance) and aerodynamic particle size distribution was measured by a Next Generation Impactor (NGI, MSP Corp., Shoreview, Minn.). Aerosols were produced over 4 s at an air flow rate of 60 L/min for the inhaler to achieve an inhalation volume of 4 L and 4 kPa pressure drop across the device. Before each run, NGI collection surfaces were coated with 5% (v/v) polysorbate 20 in methanol. One capsule was shot for each run and each sample was ran in triplicate repetitions (three capsules). After aerosolization, all collection surfaces were rinsed with specific volumes of 20 mM Tris buffer (pH 10.3) to collect the drug. Powders deposited in the capsule, device, adaptor, throat, pre-separator, and stages 1-MOC were extracted respectively.
For each test, delivered dose is defined as the mass of CSP7 that entered the NGI. Geometric standard deviation (GSD), mass median aerodynamic diameter (MMAD) and fine particle fraction % (FPF %) are calculated and analyzed with Copley Inhaler Testing Data Analysis Software (CITDAS, Copley Scientific, Nottingham UK), based on the doses deposited on stages 1-MOC of NGI. The FPF is defined as the mass fraction of particles less than 5.0 μm with the delivered dose.
as §1
Aerodynamic particle size distribution: The aerodynamic particle size distribution was evaluated by performing NGI as described in Example 1, except that the powder weight in the tested capsule was 11±5% mg and pre-separator was removed in the assembly of the NGI in stability study.

The nature of a further series: physchem. Type of series: physicochemical. The method, then: Solubility of neat (i.e., not milled) CSP7 ammonium counterion form (Table 35) was performed by adding excess amount of peptide powder into 3 mL different pH buffers (Table 36) and mixing on orbital shaker at 100 rpm for 24 hours at room temperature. The solubility and freeze-thaw samples were filtered through a 0.45 μm membrane prior to being assayed by performing High Performance Liquid Chromatography (HPLC, Thermo Fisher Scientific, Fair Lawn, N.J.). Briefly, samples were analyzed using Dionex 3000 HPLC system equipped with a Waters® reversed phase C18 column 2.5 μm, 150 mm×4.60 mm. The HPLC column was heated to 60° C. for testing, and the peptide was detected at a wavelength of 215 nm and a 1 mL/min flow rate. The two mobile phases were A (0.1% acetic acid in water) and B (0.1% acetic acid in acetonitrile). The injection volume was 20 μL and the standard curve was plotted from 0.01-1 mg/ml.

Series [3] concerns Bleomycin Induced Lung Fibrosis. Briefly: Bleomycin induced lung fibrosis in mice, Ashcroft score. Type of series: in vivo. Particulars: dry powder inhalation after bleomycin induction, vs bleomycin only. As to the method:
Preparation and lysis of lung tissues. Female mice, ages 6-8 weeks are ordered from Jackson Laboratories, stock: 000664 C57BL/6J are cared for and housed according to IACUC guidelines. The following week, mice are weighed, anesthetized with an IP injection of 80 mg/kg Ketamine & 6 mg/kg Xylazine (approx. 115 ul/mouse) and subjected to a single intratracheal installation of bleomycin. Briefly, a 26G plastic catheter is inserted into the trachea and mice receive, via pipette, 2×20 ul installations (spaced 30 s apart to allow clearance from the airways) of 0.8 U/kg bleomycin (Biotang, Cat #RB003). Controls receive the same volume of saline only. Weight is tracked (approximately 10% weight loss occurs in injured animals) and animals are subjected to a dry powder inhalation protocol (CH technologies) daily for one week. […] Images were captured with Aperio AT2 high volume, digital whole slide scanner and lungs were scored for fibrotic injury according to modified Ashcroft scoring protocol (Hubner et al., 2008, incorporated herein by reference). […] The colormetric assay was read on a microplate reader (FilterMax F5, Molecular Devices, 580 nm). […]
Lung tissues were homogenized and collagen content was analyzed using the Quickzyme collagen assay (FIG. 30). […]

Series [4] in a line: pH-solubility of polypeptide variants. The series is classed as physicochemical. As to the method:
Solubility study of variants was performed by adding variants powders into solvent in concentration of 5 mg/ml and then vortexing for 3 min. Observe the appearance of solutions in 5 min. Add more powder (˜5 mg/ml each time) and repeat vortex and observe until precipitation or gelation occurs.

The nature of series [5]: Geometric particle size by Sympatec laser diffraction, wet dispersion. The series is classed as physicochemical. The method, then: The particle sizes were next determined by Sympatec laser diffraction by a wet dispersion method. CSP7 was dissolved in ethanol +0.05% Tween 80 as dispersion medium and sonicated 10 min.

The solubility (thermodynamic) is the concentration in solution at equilibrium with solid. On to `CC(C)[C@H](NC(=O)[C@@H](NC(=O)[C@H](Cc1ccccc1)NC(=O)[C@@H](NC(=O)[C@@H](NC(=O)[C@@H](N)Cc1ccccc1)[C@@H](C)O)[C@@H](C)O)[C@@H](C)O)C(=O)N[C@H](C(=O)O)[C@@H](C)O` [CSP7 (ammonium counterion), FTTFTVT] (H-FTTFTVT-OH; N-terminus and C-terminus assumed), for which the “% 1-5 μm” value in series [1] is 47.0 ± 0.9%. Moreover, in series [1], the “Dv 10” value is recorded as 1.2 ± 0 μm. For the same compound, the “Dv 50” value in series [1] is 4.5 ± 0.1 μm. Further, the “Dv 90” value in series [1] was found to be 15.7 ± 0.8 μm. Also, in series [2], the EF % was determined as 92.8%. Besides, the FPD in series [2] is 4.2 mg. In series [2], this compound had an FPF % of 48.4%. In series [2], this compound yielded a GSD of 4.67. In series [2], this compound gave an MMAD of 3.09 μm. Further, the thermodynamic solubility at 24 h stood at 170 µg/mL in “physchem” (pH 3, aqueous buffer); 70 µg/mL in the series “physchem” (pH 4, aqueous buffer); 50 µg/mL in “physchem” (pH 5, aqueous buffer); 70 µg/mL in the series “physchem” (pH 6, aqueous buffer); 100 µg/mL in the series “physchem” (pH 7, aqueous buffer); 380 µg/mL in “physchem” (pH 8, aqueous buffer). Besides, the thermodynamic solubility at 24 h in the series “physchem” (pH 9, aqueous buffer) was 2300 µg/mL; in “physchem” (pH 10, aqueous buffer), 7870 µg/mL; in the series “physchem” (pH 11, aqueous buffer), 14400 µg/mL.

As for `CC(C)[C@H](NC(=O)[C@@H](NC(=O)[C@H](Cc1ccccc1)NC(=O)[C@@H](NC(=O)[C@@H](NC(=O)[C@@H](N)Cc1ccccc1)[C@@H](C)O)[C@@H](C)O)[C@@H](C)O)C(=O)N[C@H](C(=O)O)[C@@H](C)O` [CSP7, FTTFTVT] (H-FTTFTVT-OH; N-terminus and C-terminus assumed), in series [3], the Ashcroft score entry is “lower”. Moreover, the thermodynamic solubility at 3 min in series [4] (pH 4.5) came to 150 µg/mL (≈ 184 µM); in series [4] (pH 5.5), 160 µg/mL (≈ 196 µM); in series [4] (pH 6.5), 160 µg/mL (≈ 196 µM); in series [4] (pH 7.5) it was 310 µg/mL (≈ 380 µM); in series [4] (pH 8.5), 1430 µg/mL (≈ 1750 µM). In series [5], the “Dv 50” value is 29.0±0.8 μm.
